Experimental findings from patent publication US4361578A, “D-Homosteroids” (priority 1980, dated 1982) are described below.

In the assay the test system is 5α-reductase. The experiment in a line: Inhibition of 5α-reductase in vivo (castrated male rats, organ weights and LH/FSH after 10 daily doses). The arrangement: species or system albino rats. As for the experimental part: The in vivo testing was carried out as follows:
Adult male albino rats weighing 200 g were castrated. Two hours later they received the first of 10 daily dosages of the test substance suspended in 0.5% carboxymethylcellulose, 0.4% Tween 80 and 0.9% benzyl alcohol in physiological sodium chloride solution. Three hours after the last medication on the tenth day of treatment, the animals were decapitated, the blood from the body was collected, and the seminal vesicles, the ventral prostate and the Levator ani muscle were removed and weighed. The results are given as ng of NIAMDD-RP-1/ml.
VP: Ventral prostrate, SV: Seminal vesicle, MLA: Levator ani muscle
LH: Luteinizing hormone, FSH: Follicle stimulating hormone

Where [1] appears, read: T sc 0.5 mg/kg alone, experiment with F.
Setting [2] is: T sc 0.5 mg/kg alone, experiment with L po.
The mark [3] stands for this setting: Testosterone sc 0.5 mg/kg alone, experiment with D.
[4] abbreviates: A sc 15 mg/kg + TP sc 0.5 mg/kg.
Where [5] appears, read: TP 0.5 mg/kg alone, experiment with A.
Where [6] appears, read: TP sc 0.5 mg/kg alone, experiment with L sc.
[7] abbreviates: L sc 15 mg/kg + TP sc 0.5 mg/kg.

Turning to `C[C@]12CC[C@H]3[C@@H](CCC4=CC(=O)CC[C@@]43C)[C@@H]1CC[C@@H]2O` [T, Testosterone], under setting [1], the “LH (luteinizing hormone)” value stood at 96 ± 37 ng/mL, the “MLA (Levator ani muscle weight)” value turned out to be 126 ± 7 mg, the “SV (seminal vesicle weight)” value is reported as 85 ± 7 mg and the “VP (ventral prostate weight)” value is recorded as 128 ± 12 mg. Also, under setting [2], the “MLA (Levator ani muscle weight)” value is listed as 109 ± 8 mg, the “SV (seminal vesicle weight)” value came out at 92 ± 13 mg and the “VP (ventral prostate weight)” value is recorded as 96 ± 10 mg. Further, under setting [3], the “FSH (follicle stimulating hormone)” value was 1206 ± 114 ng/mL, the “LH (luteinizing hormone)” value turned out to be 104 ± 25 ng/mL, the “MLA (Levator ani muscle weight)” value was 108 ± 5 mg and the “SV (seminal vesicle weight)” value was determined as 65 ± 5 mg. Moreover, under setting [3], the “VP (ventral prostate weight)” value is 112 ± 10 mg.
Consider `COC(=O)[C@H]1CCC[C@H]2[C@@H]3CCC4=C(Cl)C(=O)CC[C@]4(C)[C@H]3CC[C@]12C` [Test substance D, methyl 4-chloro-3-oxo-D-homo-androst-4-ene-17aβ-carboxylate], for which, under “D sc 10 mg/kg + T sc 0.5 mg/kg”, the “FSH (follicle stimulating hormone)” value was determined as 1325 ± 93 ng/mL, the “LH (luteinizing hormone)” value was 244 ± 45 ng/mL, the “MLA (Levator ani muscle weight)” value is listed as 83 ± 6 mg and the “SV (seminal vesicle weight)” value is given as 51 ± 9 mg. For the same compound, for the setting “D sc 10 mg/kg + T sc 0.5 mg/kg”, the “VP (ventral prostate weight)” value is recorded as 95 ± 10 mg.
`C[C@]12CC[C@H]3[C@@H](CCC4=CC(=O)CC[C@@]43C)[C@@H]1CCC[C@@H]2C(=O)O` [Test substance A, 3-oxo-D-homo-androst-4-ene-17aα-carboxylic acid]: under setting [4], the “FSH (follicle stimulating hormone)” value amounted to 1268 ± 125 ng/mL, the “LH (luteinizing hormone)” value came out at 283 ± 41 ng/mL, the “MLA (Levator ani muscle weight)” value stood at 118 ± 8 mg and the “SV (seminal vesicle weight)” value is on record as 157 ± 15 mg. Moreover, the “VP (ventral prostate weight)” value under setting [4] was 116 ± 11 mg.
Take `CCC(=O)O[C@H]1CC[C@H]2[C@@H]3CCC4=CC(=O)CC[C@]4(C)[C@H]3CC[C@]12C` [TP, Testosterone propionate]: under setting [5], the “FSH (follicle stimulating hormone)” value turned out to be 783 ± 167 ng/mL, the “LH (luteinizing hormone)” value is 101 ± 36 ng/mL, the “MLA (Levator ani muscle weight)” value was determined as 137 ± 7 mg and the “SV (seminal vesicle weight)” value was 215 ± 13 mg. The “VP (ventral prostate weight)” value under setting [5] is 160 ± 18 mg. In addition, under setting [6], the “FSH (follicle stimulating hormone)” value stood at 915 ± 37 ng/mL, the “LH (luteinizing hormone)” value was determined as 121 ± 12 ng/mL, the “MLA (Levator ani muscle weight)” value amounted to 75 ± 4 mg and the “SV (seminal vesicle weight)” value is listed as 69 ± 3 mg. Also, under setting [6], the “VP (ventral prostate weight)” value is given as 108 ± 6 mg.
On to `COC(=O)C1=CCC[C@H]2[C@@H]3CCC4=CC(=O)CC[C@]4(C)[C@H]3CC[C@]12C` [Test substance L, methyl 3-oxo-D-homo-androsta-4,17-diene-17a-carboxylate], for which, for the setting “L po 30 mg/kg + T sc 0.5 mg/kg”, the “MLA (Levator ani muscle weight)” value came to 88 ± 17 mg, the “SV (seminal vesicle weight)” value is on record as 68 ± 13 mg and the “VP (ventral prostate weight)” value worked out at 81 ± 16 mg. For the same compound, under setting [7], the “FSH (follicle stimulating hormone)” value came out at 1099 ± 94 ng/mL, the “LH (luteinizing hormone)” value was determined as 163 ± 30 ng/mL, the “MLA (Levator ani muscle weight)” value was 67 ± 6 mg and the “SV (seminal vesicle weight)” value was determined as 52 ± 1 mg. The “VP (ventral prostate weight)” value under setting [7] is 80 ± 6 mg.
Consider `C[C@]12CCC(=O)C=C1CC[C@@H]1[C@@H]2CC[C@@]2(C)[C@H]1CC=C[C@@]21CCCO1` [Test substance F, 4,5-dihydrospiro[furan-2(3H),17'a(β1)-D-homo-androsta-4,16-dien]-3'-one], for which, where the note is “F sc 10 mg/kg + T sc 0.5 mg/kg”, the “LH (luteinizing hormone)” value is 88 ± 15 ng/mL, the “MLA (Levator ani muscle weight)” value is given as 105 ± 6 mg, the “SV (seminal vesicle weight)” value is on record as 66 ± 4 mg and the “VP (ventral prostate weight)” value is given as 93 ± 10 mg.
